In patent publication US6037335A, “Phosphonate-nucleotide ester derivatives” (Mitsubishi Chemical Corporation, priority 1993, dated 2000):
Read-outs that look alike come from different tables or passages of the source.

Columns and labels:
HBV [1] = assay: Inhibition of HBV growth (HBV-DNA synthesis in HB611 cells, southern blotting); type: cell-based; design: dose or concentration left out as unconfirmed; settings: Hepatitis B virus, 408 h, DNA recovered day 17
Experimental: (§1) HB611 cells (recombinant human lever cancer cell producing HBV, 2×10^4) was incubated on Dulbecco ME medium containing bovine fetal serum, streptomycin ([…]), penicillin (100 IU/ml) and G-418 (0.2 mg/ml) at 37° C. On the 2nd and 5th days of cultivation, the medium was changed, then the media containing specimens at final concentration of 10 mM were substituted on the 8th, 11th and 14th days. On 17 days of cultivation, DNA of the cell was recovered. The amount of HBV-DNA was measured by southern blotting, and inhibition of HBV-DNA synthesis in the cell was determined. In addition, the concentration of the compound required for 50% death of the HB611 cells was determined.

[2] = Concentration required for 50% death of HB611 cells; type: cell-based; settings: human, read-out: LD50 of HB611 cell
Experimental: as §1

HBV [3] = assay: Inhibition of HBV growth in rat serum upon oral administration (HB611 cells cultured with 5% serum); type: in vivo; settings: Hepatitis B virus, read-out: HBV-DNA Synthesis Inhibition; for inhibition at 500 mg/kg: single oral dose 0.5 g/kg
Experimental: (§2) Inhibition of HBV growth in rat or mouse serum upon oral administration
(§3) Groups of rats (3 rats per group) were received single oral dose of specimen (1 g/kg or 0.5 g/kg), bled at 1 hour after administration and serum was prepared. Separately, groups of mice (3 mice per group) were received single oral dose of specimen (0.3 g/kg), bled at 30 minutes after administration and serum was prepared.
(§4) HB611 cells (2×10^4) were incubated on Dulbecco ME medium containing 10% bovine fetal serum, streptomycin ([…]), penicillin (100 IU/ml) and G-418 (0.2 mg/ml) at 37° C. On the 2nd and 5th days of cultivation, the medium was changed, then substituted with a medium containing 5% of the above serum (rat or mouse serum after oral administration of the specimen) on the 8th, 11th and 14th day, and DNA of the cell was recovered on the 17th days of cultivation. The amount of HBV-DNA was measured by southern blotting, and intracellular HBV-DNA synthesis inhibition was determined. For reference, the same experiment was conducted on PMEA.

HBV [4] = assay: Inhibition of HBV growth in mouse serum upon oral administration (HB611 cells cultured with 5% serum); type: in vivo; settings: Hepatitis B virus, HB611, 0.5 h, single oral dose 0.3 g/kg, serum 30 minutes after administration, 5% serum in medium, read-out: HBV-DNA Synthesis Inhibition
Experimental: as §2, §3, §4

[5] = test system: herpes simplex viruses type-I (HSV-1); settings: literature; cited from earlier work
[6] = test system: herpes simplex viruses type-II (HSV-2); settings: literature; cited from earlier work
[7] = test system: human immunodeficiency virus (HIV); settings: literature; cited from earlier work
hepatitis B virus = settings: literature; cited from earlier work
[8] = HB611, Rat, single oral dose 1 g/kg, serum 1 hour after administration, 5% serum in medium
[9] = HB611, Rat, serum 1 hour after administration, 5% serum in medium

SMILES	inhibition (HBV [1]) [%]	CC50 [2] [µM]	further results
Nc1ncnc2c1ncn2CCOCP(=O)(OCC(F)(F)F)OCC(F)(F)F [Example 1, 9-[2-[bis(2,2,2-trifluoroethyl)phosphonylmethoxy]ethyl]adenine]	91.5	> 1000	inhibition at 1000 mg/kg (HBV [3]; [8]): 89.9%
Nc1nc(N)c2ncn(CCOCP(=O)(OCC(F)(F)F)OCC(F)(F)F)c2n1 [Example 2, 9-[2-[bis(2,2,2-trifluoroethyl)phosphonylmethoxy]ethyl]-2,6-diaminopurine]	99.9	840	inhibition at 1000 mg/kg (HBV [3]; [8]): 71.9%
Nc1nc(Cl)c2ncn(CCOCP(=O)(OCC(F)(F)F)OCC(F)(F)F)c2n1 [Example 3, 9-[2-[bis(2,2,2-trifluoroethyl)phosphonylmethoxy]ethyl]-2-amino-6-chloropurine]	99.9	399	inhibition at 300 mg/kg (HBV [4]): 99.9%
Nc1nc(Cl)c2c(ncn2CCOCP(=O)(OCC(F)(F)F)OCC(F)(F)F)n1 [Example 4, 7-[2-[bis(2,2,2-trifluoroethyl)phosphonylmethoxy]ethyl]-2-amino-6-chloropurine]			inhibition at 300 mg/kg (HBV [4]): 36.3%
Nc1nc(N)c2nnn(CCOCP(=O)(OCC(F)(F)F)OCC(F)(F)F)c2n1 [Example 5, 9-[2-[bis(2,2,2-trifluoroethyl)phosphonylmethoxy]ethyl]-8-aza-2,6-diaminopurine]	97.2		inhibition at 300 mg/kg (HBV [4]): 87.2%
COP(=O)(COCCn1cnc2c(N)ncnc21)OCC(F)(F)F (centres unmarked) [Example 12, 9-[2-[methyl(2,2,2-trifluoloethyl)phosphonylmethoxy]ethyl]adenine]		> 1000	inhibition at 1000 mg/kg (HBV [3]; HB611, po, 1 h): 92.9%
COP(=O)(COCCn1cnc2c(N)nc(N)nc21)OCC(F)(F)F (centres unmarked) [Example 13, 9-[2-[methyl(2,2,2-trifluoloethyl)phosphonylmethoxy]ethyl]-2,6-diaminopurine]		> 1000	inhibition at 1000 mg/kg (HBV [3]; HB611, po, 1 h): 77.7%
COCCOP(=O)(COCCn1cnc2c(N)ncnc21)OCCOC [Example 14]	55	> 1000	inhibition at 500 mg/kg (HBV [3]; [9]): 25.4%
Nc1ncnc2c1ncn2CCOCP(=O)(OCCOc1ccccc1)OCCOc1ccccc1 [Example 15, 9-[[2-bis(2-phenoxyethyl)phosphonylmethoxy]ethyl]adenine]	59.7	174	inhibition at 500 mg/kg (HBV [3]; [9]): 38.5%
Nc1ncnc2c1ncn2CCOCP(=O)(OCCOCc1ccccc1)OCCOCc1ccccc1 [Example 16, 9-[[2-bis(2-benzyloxyethyl)phosphonylmethoxy]ethyl]adenine]	57.8	178	inhibition at 500 mg/kg (HBV [3]; [9]): 43.6%
CC(=O)OCCOP(=O)(COCCn1cnc2c(N)ncnc21)OCCOC(C)=O [Example 17, 9-[[2-bis(2-acetoxyethyl)phosphonylmethoxy]ethyl]adenine]	66.2	> 1000	
CCCCC(=O)OCCOP(=O)(COCCn1cnc2c(N)ncnc21)OCCOC(=O)CCCC [Example 18, 9-[[2-bis(2-valeryloxyethyl)phosphonylmethoxy]ethyl]adenine]	73.4	47	inhibition at 500 mg/kg (HBV [3]; [9]): 61.4%
Nc1nc2c(ncn2CCOCP(=O)(OCC(F)(F)F)OCC(F)(F)F)c(=O)[nH]1 [Example 20]	99.9		inhibition at 300 mg/kg (HBV [4]): 99.9%
Nc1nc2ncn(CCOCP(=O)(OCC(F)(F)F)OCC(F)(F)F)c2c(=O)[nH]1 [Example 21, 7-[2-[bis(2,2,2-trifluoroethyl)phosphonylmethoxy]ethyl]guanine]	71.3		
Nc1c2ncn(CCOCP(=O)(OCC(F)(F)F)OCC(F)(F)F)c2nc[n+]1[O-] [Example 22]	76.2		inhibition at 300 mg/kg (HBV [4]): 15.2%
Nc1nc2c(ncn2CCOCP(=O)(OCC(F)(F)F)OCC(F)(F)F)c(=S)[nH]1 [Example 23, 9-[2-[bis(2,2,2-trifluoroethyl)phosphonylmethoxy]ethyl]-6-thioguanine]	86.1		
Cc1ccc(Sc2nc(N)nc3c2ncn3CCOCP(=O)(OCC(F)(F)F)OCC(F)(F)F)cc1 [Example 24, 9-[2-[bis(2,2,2-trifluoroethyl)phosphonylmethoxy]ethyl]-2-amino-6-p-toluylthiopurine]	99.9		
Cc1ccc(Sc2nc(O)nc3c2ncn3CCOCP(=O)(OCC(F)(F)F)OCC(F)(F)F)cc1 [Example 25, 9-[2-[bis(2,2,2-trifluoroethyl)phosphonylmethoxy]ethyl]-2-hydroxy-6-p-toluylthiopurine]	99.9		
Cn1c(N)nc2c(ncn2CCOCP(=O)(OCC(F)(F)F)OCC(F)(F)F)c1=O [Example 26, 9-[2-[bis(2,2,2-trifluoroethyl)phosphonylmethoxy]ethyl]-1-methylguanine]	99.9		
Nc1nc(N)c2ncn(CCOCP(=O)(O)O)c2n1 [PMDAP, 9-(2-phosphonylmethoxy)ethyl-2,6-diaminopurine]			reported to be effective on herpes simplex virus type-I [5]: effective; reported to be effective on herpes simplex virus type-II [6]: effective; reported to be effective on human immunodeficiency virus [7]: effective; reported to be effective on hepatitis B virus (hepatitis B virus): effective
Nc1ncnc2c1ncn2CCOCP(=O)(O)O [PMEA, 9-(2-phosphonylmethoxy)ethyladenine]			inhibition at 1000 mg/kg (HBV [3]; HB611, po, 1 h): 35.5%; reported to be effective on herpes simplex virus type-I [5]: effective; reported to be effective on herpes simplex virus type-II [6]: effective; reported to be effective on human immunodeficiency virus [7]: effective; reported to be effective on hepatitis B virus (hepatitis B virus): effective
CC(=O)NCCOP(=O)(COCCn1cnc2c(N)ncnc21)OCCNC(C)=O [Reference Example 1, 9-[[2-bis(2-acetamidethyl)phosphonylmethoxy]ethyl]adenine, reference compound]		> 1000	inhibition at 500 mg/kg (HBV [3]; [9]): 0%
Nc1ncnc2c1ncn2CCOCP(=O)(OCCO)OCCO [Reference Example 2, 9-[[2-bis(2-hydroxyethyl)phosphonylmethoxy]ethyl]adenine, reference compound]	31	> 1000	inhibition at 500 mg/kg (HBV [3]; [9]): 0%
